Assay [1] has as its target T1, HCV NS3 helicase NS3h_1b(con1) (Hepatitis C virus genotype 1b, UniProt Q9WMX2).
T1 construct: truncated C-terminally His-tagged NS3 proteins lacking the N-terminal protease, called NS3h; His-tag (C); made in house
The assay is described as follows: biochemical. The class given is biochemical, hepatitis C virus genotype 1b(con1). Summed up:
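Molecular beacon helicase assay with His-tagged recombinant NS3 and a Cy5/IBRQ-labelled partially duplex DNA substrate (25 bp) or Tye665-labelled RNA substrate (19 bp). Reactions started with 1 mM ATP. Screening read fluorescence before and 30 min after ATP (ex 643/em 670 nm). For IC50, 5% v/v DMSO was present, initial velocities came from first-order decay fits, and a Hill equation was applied.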

The subject of assay [2] is HCV RLuc subgenomic replicon (genotype 1b) in Huh-7.5 cells. Nature of the assay: HCV subgenomic replicon assay (Renilla luciferase). The class given is cell-based, hepatitis C virus. As to conditions: Hepatitis C virus. An excerpt: An HCV Renilla luciferase reporter construct (HCV RLuc; Huang, et al. (2006) Hepatology 43:81-90) was used to measure the effect of each compound on cellular HCV RNA levels. In HCV RLuc, the HCV internal ribosome entry site (IRES) drives the translation of the neomycin and Renilla luciferase genes while the HCV nonstructural proteins (NS3 to NS5B) are translated from the Encephalomyocarditis virus IRES (Huang, et al. (2006) supra). The plasmid DNA was cleaved with ScaI, purified by phenol/chloroform extraction followed by ethanol precipitation, and used as template for RNA transcription using […] T7 RNA transcription kit (Ambion, Austin, Tex.). The RNA transcripts were treated with 2 U DNase I (Ambion) at 37° C. for 30 minutes, purified by acid phenol/chloroform extraction, followed by isopropanol precipitation, and suspended in diethylpyrocarbonate-treated water. RNA concentration was determined by spectrophotometry by measuring the A260. RNA integrity and size was checked on 1% agarose gel. Transcribed RNA was stored in aliquots at −80° C. until needed.
Huh-7.5 cells were transfected with HCV RNA by electroporation. Briefly, subconfluent Huh7.5 cells were trypsinized, suspended in complete growth medium, and centrifuged at 1,000×g for 5 minutes at 4° C. The cell pellets were then washed twice with ice-cold phosphate-buffered saline (PBS) and suspended at 1.75×10^7 cells/mL in ice-cold PBS. Replicon RNA (5 μg) was mixed with 0.4 mL of cell suspension and transferred to 2 mm gap width electroporation cuvette (EPPENDORF AG, Germany) and pulsed 5 times for 99 μsec at 820 V over 1.1 sec intervals using the ECM 830 electroporator instrument (BTX Harvard Apparatus, Holliston, Mass.). After a 5 minute recovery period at room temperature, cells were transferred to 10 ml complete growth medium, and seeded into 10 cm diameter cell culture dishes. Twenty-four hours after transfection, the medium was replaced with fresh complete DMEM supplemented with 1 mg/ml geneticin (Invitrogen) and the medium was replaced every three to four days with fresh medium containing 1 mg/mL geneticin. Geneticin-resistant colonies were selected for a period of two weeks and expanded in the presence of 250 μg/mL geneticin.
HCV RLuc replicon cells were seeded at a density of 10×10^3 cells per well in 96-well plates and incubated for 4-5 hours to allow the cells to attach to the plate. The compounds dissolved in dimethyl sulfoxide (DMSO) were added at a final concentration of 10 μM (DMSO solvent final concentration was 0.5%) and the cells were incubated for 72 hours at 37° C. under 5% CO2 atmosphere. The effects of compounds on HCV replication were then assessed by measuring the Renilla luciferase activity in compound-treated versus DMSO-treated cells. At the end of the incubation period, the medium was aspirated and the cells were washed with 1×PBS. The Renilla luciferase reporter gene assay was performed using the Renilla luciferase assay kit (PROMEGA, Madison, Wis.) according to the manufacturer's instructions. Briefly, the cells were lysed by addition of 50 μL of 1× Renilla luciferase lysis buffer followed by two cycles of freeze/thaw. The luciferase activity content of the lysate was measured with a FLUOSTAR Omega microplate reader instrument (BMG Labtech, Germany) after injecting 50 μL of luciferase substrate and reading for 5 seconds.
To determine if the above identified compounds might be useful as HCV antiviral agents, they were added to cells harboring HCV subgenomic RNA replicon. The HCV replicon chosen was derived from the same HCV strain (genotype 1b) as the NS3 protein used for screening and enzyme assays. […] 75:4614-4624; Blight, et al. (2002) J. Virol. 76:13001-13014). […]
In general terms: In antiviral work, replicon cells carry a viral genome segment that copies itself.

[3] abbreviates: MBHA, DNA unwinding, mean ± SD of three titrations, read-out: Helicase IC50.
Where [4] appears, read: genotype 1b (con1), read-out: Target Potency MBHA (IC50 avg., μM) 1b (con1).
The mark [5] stands for this setting: standard HCV helicase MBHA (Table 9), read-out: DNA Unwinding IC50.
[6] abbreviates: Huh7.5, 10 μM compound, triplicate, average ± SD, read-out: HCV replication (% Inh.).
[7] abbreviates: Huh7.5, 10 μM, read-out: Replicon (% Inhibition @ 10 μM).
The mark [8] stands for this setting: DNA-based MBHA, genotype 1b, read-out: DNA Helicase NS3h_1b IC50 (μM) ± SD.

This note sets out measurements from patent publication US9464064B2, “HCV helicase inhibitors and methods of use thereof” (University of Kansas, priority 2011, dated 2016).

Where two headings read alike, the source gives them in different places.

T1 sequence (Q9WMX2 1192-1657): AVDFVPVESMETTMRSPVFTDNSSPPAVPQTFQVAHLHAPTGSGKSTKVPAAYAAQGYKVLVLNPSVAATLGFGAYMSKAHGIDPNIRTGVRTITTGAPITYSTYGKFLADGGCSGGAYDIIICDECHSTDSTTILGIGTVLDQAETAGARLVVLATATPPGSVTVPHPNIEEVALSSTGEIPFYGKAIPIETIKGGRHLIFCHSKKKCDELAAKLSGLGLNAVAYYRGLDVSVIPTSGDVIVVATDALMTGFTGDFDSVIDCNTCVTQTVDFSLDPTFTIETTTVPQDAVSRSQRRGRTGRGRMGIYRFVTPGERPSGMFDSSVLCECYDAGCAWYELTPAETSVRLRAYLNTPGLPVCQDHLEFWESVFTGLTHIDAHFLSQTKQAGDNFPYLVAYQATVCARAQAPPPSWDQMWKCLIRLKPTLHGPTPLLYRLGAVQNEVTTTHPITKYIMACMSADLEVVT

Consider `Cc1ccc2nc(-c3ccc4nc(-c5ccc(NC(=O)c6ccc(Cl)cc6)cc5)sc4c3)sc2c1S(=O)(=O)O` [Compound 10, 2′-(4-(4-chlorobenzamido)phenyl)-6-methyl-[2,6′-bibenzo[d]thiazole]-7-sulfonic acid], for which the IC50 in assay [1] (DNA Unwinding IC50, standard HCV helicase MBHA (Table 9)) is 3 µM; in assay [1] (Helicase IC50, MBHA, DNA unwinding, mean ± SD of three titrations), 3.4 ± 0.3 µM; in assay [1] (Target Potency MBHA (IC50 avg., μM) 1b (con1), genotype 1b (con1)) it was 3.4 ± 0.3 µM. In addition, the inhibition at 10 µM was 42 ± 9% in assay [2] (Huh7.5, read-out: HCV replication (% Inh.)) and 42 ± 9% in assay [2] (Huh7.5, read-out: Replicon (% Inhibition @ 10 μM)).
With `Cc1ccc(C(=O)Nc2ccc(-c3nc4ccc(-c5nc6ccc(C)c(S(=O)(=O)O)c6s5)cc4s3)cc2)cc1` [Compound 11, 6-methyl-2′-(4-(4-methylbenzamido)phenyl)-[2,6′-bibenzo[d]thiazole]-7-sulfonic acid], the IC50 turned out to be 3.3 ± 0.3 µM in assay [1] (setting [3]), 3.3 ± 0.3 µM in assay [1] (setting [4]) and 3 µM in assay [1] (setting [5]). For the same compound, the inhibition at 10 µM in assay [2] (setting [6]) and in assay [2] (setting [7]) was 52 ± 12% each time.
Regarding `Cc1ccc2nc(-c3ccc4nc(-c5ccc(NC(=O)c6ccc(C(F)(F)F)cc6)cc5)sc4c3)sc2c1S(=O)(=O)O` [Compound 12, 6-methyl-2′-(4-(4-(trifluoromethyl)benzamido)phenyl)-[2,6′-bibenzo[d]thiazole]-7-sulfonic acid], the IC50 was found to be 2 ± 0.4 µM in assay [1] (setting [8]), 1.8 ± 0.4 µM in assay [1] (setting [3]), 1.8 ± 0.4 µM in assay [1] (setting [4]) and 2 µM in assay [1] (setting [5]). Also, the inhibition at 10 µM in assay [2] (setting [6]) and in assay [2] (setting [7]) was 44 ± 12% throughout.
On to `Cc1ccc2nc(-c3ccc4nc(-c5ccc(NC(=O)c6ccc(C(C)(C)C)cc6)cc5)sc4c3)sc2c1S(=O)(=O)O` [Compound 13, 2′-(4-(4-(tert-butyl)benzamido)phenyl)-6-methyl-[2,6′-bibenzo[d]thiazole]-7-sulfonic acid], for which the IC50 in assay [1] (setting [8]) came out at 8 ± 1 µM; in assay [1] (setting [3]) it was 8.2 ± 1 µM; in assay [1] (setting [4]) it was 8.2 ± 1 µM; in assay [1] (setting [5]), 8 ± 1 µM. Also, the inhibition at 10 µM in assay [2] (setting [6]) and in assay [2] (setting [7]) was 51 ± 9% in each case.
As for `Cc1ccc2nc(-c3ccc4nc(-c5ccc(NC(=O)c6ccc(N(C)C)cc6)cc5)sc4c3)sc2c1S(=O)(=O)O` [Compound 14, 2′-(4-(4-(dimethylamino)benzamido)phenyl)-6-methyl-[2,6′-bibenzo[d]thiazole]-7-sulfonic acid], the IC50 in assay [1] (setting [3]) stood at 11 ± 6.7 µM; in assay [1] (setting [4]) it was 11 ± 6.7 µM; in assay [1] (setting [5]), 11 ± 7 µM. In addition, the inhibition at 10 µM in assay [2] (setting [6]) and in assay [2] (setting [7]) was 22 ± 2% each time.
For `Cc1ccc2nc(-c3ccc4nc(-c5ccc(NC(=O)c6ccc(Br)cc6)cc5)sc4c3)sc2c1S(=O)(=O)O` [Compound 15, 2′-(4-(4-bromobenzamido)phenyl)-6-methyl-[2,6′-bibenzo[d]thiazole]-7-sulfonic acid], the IC50 amounted to 5 ± 3.9 µM in assay [1] (setting [8]), 5.2 ± 4 µM in assay [1] (setting [3]), 5.2 ± 4 µM in assay [1] (setting [4]) and 5 ± 4 µM in assay [1] (setting [5]). Besides, the inhibition at 10 µM in assay [2] (setting [6]) and in assay [2] (setting [7]) was 7 ± 18% each time.
In the case of `Cc1ccc2nc(-c3ccc4nc(-c5ccc(NC(=O)c6ccc(NC(=O)OCC7c8ccccc8-c8ccccc87)cc6)cc5)sc4c3)sc2c1S(=O)(=O)O` [Compound 16, 2′-(4-(4-((((9H-fluoren-9-yl)methoxy)carbonyl)amino)benzamido)phenyl)-6-methyl-[2,6′-bibenzo[d]thiazole]-7-sulfonic acid], the IC50 amounted to 5.4 ± 1 µM in assay [1] (setting [3]), 5.4 ± 1 µM in assay [1] (setting [4]) and 5 ± 1 µM in assay [1] (setting [5]). Moreover, the inhibition at 10 µM in assay [2] (setting [6]) and in assay [2] (setting [7]) was 57 ± 21% each time.
For `Cc1ccc2nc(-c3ccc4nc(-c5ccc(NC(=O)c6cccc(Cl)c6)cc5)sc4c3)sc2c1S(=O)(=O)O` [Compound 17, 2′-(4-(3-chlorobenzamido)phenyl)-6-methyl-[2,6′-bibenzo[d]thiazole]-7-sulfonic acid], the IC50 in assay [1] (setting [8]) is 3 ± 0.8 µM; in assay [1] (setting [3]), 2.6 ± 1 µM; in assay [1] (setting [4]), 2.6 ± 1 µM; in assay [1] (setting [5]), 3 ± 1 µM. Also, the inhibition at 10 µM in assay [2] (setting [6]) and in assay [2] (setting [7]) was 54 ± 10% each time.
For `Cc1ccc2nc(-c3ccc4nc(-c5ccc(NC(=O)c6ccc(Cl)c(Cl)c6)cc5)sc4c3)sc2c1S(=O)(=O)O` [Compound 18, 2′-(4-(3,4-dichlorobenzamido)phenyl)-6-methyl-[2,6′-bibenzo[d]thiazole]-7-sulfonic acid], the IC50 in assay [1] (setting [8]) amounted to 4 ± 1 µM; in assay [1] (setting [3]), 3.7 ± 1 µM; in assay [1] (setting [4]) it was 3.7 ± 1 µM; in assay [1] (setting [5]), 4 ± 1 µM. Also, the inhibition at 10 µM in assay [2] (setting [6]) and in assay [2] (setting [7]) was 43 ± 15% in each case.
As to `Cc1ccc2nc(-c3ccc4nc(-c5ccc(NC(=O)c6ccccc6C(F)(F)F)cc5)sc4c3)sc2c1S(=O)(=O)O` [Compound 19, 6-methyl-2′-(4-(2-(trifluoromethyl)benzamido)phenyl)-[2,6′-bibenzo[d]thiazole]-7-sulfonic acid], the IC50 worked out at 14 ± 1 µM in assay [1] (setting [3]), 14.1 ± 1 µM in assay [1] (setting [4]) and 14 ± 1 µM in assay [1] (setting [5]). Further, the inhibition at 10 µM in assay [2] (setting [6]) came to 0%; in assay [2] (setting [7]), 0.3 ± 9%.
Regarding `Cc1ccc2nc(-c3ccc4nc(-c5ccc(NC(=O)c6cccc(C(F)(F)F)c6)cc5)sc4c3)sc2c1S(=O)(=O)O` [Compound 20, 6-methyl-2′-(4-(3-(trifluoromethyl)benzamido)phenyl)-[2,6′-bibenzo[d]thiazole]-7-sulfonic acid], the IC50 in assay [1] (setting [3]) came to 20 ± 12 µM; in assay [1] (setting [4]), 19.7 ± 12 µM. The inhibition at 10 µM in assay [2] (setting [6]) and in assay [2] (setting [7]) was 41 ± 8% in each case.
Turning to `Cc1ccc2nc(-c3ccc4nc(-c5ccc(NC(=O)c6c(F)cccc6C(F)(F)F)cc5)sc4c3)sc2c1S(=O)(=O)O` [Compound 21, 2′-(4-(2-fluoro-6-(trifluoromethyl)benzamido)phenyl)-6-methyl-[2,6′-bibenzo[d]thiazole]-7-sulfonic acid], the IC50 in assay [1] (setting [3]) was 17 ± 6 µM; in assay [1] (setting [4]), 16.8 ± 6 µM; in assay [1] (setting [5]) it was 17 ± 6 µM. The inhibition at 10 µM in assay [2] (setting [6]) and in assay [2] (setting [7]) was 55 ± 7% each time.
For the compound `Cc1ccc2nc(-c3ccc4nc(-c5ccc(NC(=O)c6cccc(C(F)(F)F)c6F)cc5)sc4c3)sc2c1S(=O)(=O)O` [Compound 22, 2′-(4-(2-fluoro-3-(trifluoromethyl)benzamido)phenyl)-6-methyl-[2,6′-bibenzo[d]thiazole]-7-sulfonic acid], the IC50 in assay [1] (setting [3]) turned out to be 9.2 ± 3 µM; in assay [1] (setting [4]), 9.2 ± 3 µM; in assay [1] (setting [5]), 9 ± 3 µM. For the same compound, the inhibition at 10 µM in assay [2] (setting [6]) and in assay [2] (setting [7]) was 48 ± 18% in each case.

Usually IC50 stands for the midpoint of a concentration-inhibition curve.
